From patent EP0745390A2, “Polymeric prodrugs for beta-lactamase and uses thereof” (priority 1995, dated 1996)

How the values were obtained:
bL = bL (Enterobacter cloacae, UniProt P05364); assay type: biochemical; conditions: 3-4 independently run experiments
[1] = tested on: H2981 human lung adenocarcinoma cell line; assay: In vitro cytotoxicity assay, incorporation of [^3H] thymidine into DNA; assay type: cell-based; conditions: H2981 cells, non-conjugate treated, doxorubicin instead of PEG-AC-Dox (Figure 3)
[2] = in mice; cited from earlier work
[3] = Toxicity in nude mice (maximum tolerated dose), single intravenous injection

bL, sequence (P05364 21-381): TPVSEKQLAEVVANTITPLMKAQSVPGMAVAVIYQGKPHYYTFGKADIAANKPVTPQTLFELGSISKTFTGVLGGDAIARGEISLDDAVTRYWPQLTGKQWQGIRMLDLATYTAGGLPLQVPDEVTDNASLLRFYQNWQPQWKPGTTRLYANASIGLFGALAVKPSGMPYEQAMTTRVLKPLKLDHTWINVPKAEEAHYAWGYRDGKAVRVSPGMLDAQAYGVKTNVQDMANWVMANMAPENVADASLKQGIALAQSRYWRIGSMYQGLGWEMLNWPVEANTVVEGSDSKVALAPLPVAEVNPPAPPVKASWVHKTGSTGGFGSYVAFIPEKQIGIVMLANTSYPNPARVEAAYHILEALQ

COc1cccc2c1C(=O)c1c(O)c3c(c(O)c1C2=O)C[C@@](O)(C(=O)CO)C[C@@H]3O[C@H]1C[C@H](NC(=O)OCC2=C(C(=O)O)N3C(=O)[C@@H](NC(=O)Cc4ccccc4)[C@H]3SC2)[C@H](O)[C@H](C)O1 [C-Dox, 7-phenylacetylcephalosporin doxorubicin]
Vmax (bL; hydrolysis by bL in phosphate buffered saline containing bovine serum albumin): 400 ± 96 µmol/mim /mg | Km (bL; hydrolysis by bL): 46 ± 6 µM | kcat (bL; hydrolysis by bL): 280 ± 67 s⁻¹

COc1cccc2c1C(=O)c1c(O)c3c(c(O)c1C2=O)C[C@@](O)(C(=O)CO)C[C@@H]3O[C@H]1C[C@H](N)[C@H](O)[C@H](C)O1 [doxorubicin]
IC50 [1]: 100 to 200 nM | initial half life [2]: 2 min | maximum tolerated dose ([3]; nude mice, single intravenous injection, dose giving < 20% weight loss, no deaths): 13.8 µmol/kg body weight | MTD ([3]; nude, mouse, in vivo, iv): 8 mg/kg
